Source: patent publication US20100267629A1, “Enterostatin as Therapeutic Agent for Hypoglycemia” (Board of Supervisors of Louisiana State University and …, priority 2006, published 2010)

Experiments:
rats = conditions: in overnight fasted rats; cited from earlier work
F1-ATPase β-subunit = F1-ATPase β-subunit (Homo sapiens, UniProt P06576); conditions: effect of the analog on binding of 125I-β-casomorphin1-7 to F1-ATPase β-subunit; cited from earlier work
[1] = in vivo; cited from earlier work
AMPK = experiment: pAMPK Western blot in HepG2 cells, 15 min incubation; format: cell-based, human
Description: Human liver cells (HepG2 cell line, American Type Culture Collection, Manassas, Va.) were grown and maintained in Dulbecco's modified eagle's medium (Gibco, Carlsbad, Calif.) containing 10% fetal bovine serum, penicillin (100 I.U./ml), and streptomycin (100 μg/ml). The cells were then incubated for 15 min with 5 mM glucose and various concentrations of enterostatin (0.003, 0.01, 0.1, 1, and 3 μM) and/or of its antagonist β-casomorphin (BCM) (0.003, 0.01, 0.1, 1, and 3 μM). After incubation, the cells were lysed and the cytosolic proteins subjected to Western blot analysis for AMPK and pAMPK. The results for pAMPK activity are shown in FIG. 5A (enterostatin) and FIG. 5B (BCM). […] This effect was blocked by the presence of an antibody to the enterostatin receptor (anti F1-ATPase beta subunit).

F1-ATPase β-subunit, sequence (P06576 48-529): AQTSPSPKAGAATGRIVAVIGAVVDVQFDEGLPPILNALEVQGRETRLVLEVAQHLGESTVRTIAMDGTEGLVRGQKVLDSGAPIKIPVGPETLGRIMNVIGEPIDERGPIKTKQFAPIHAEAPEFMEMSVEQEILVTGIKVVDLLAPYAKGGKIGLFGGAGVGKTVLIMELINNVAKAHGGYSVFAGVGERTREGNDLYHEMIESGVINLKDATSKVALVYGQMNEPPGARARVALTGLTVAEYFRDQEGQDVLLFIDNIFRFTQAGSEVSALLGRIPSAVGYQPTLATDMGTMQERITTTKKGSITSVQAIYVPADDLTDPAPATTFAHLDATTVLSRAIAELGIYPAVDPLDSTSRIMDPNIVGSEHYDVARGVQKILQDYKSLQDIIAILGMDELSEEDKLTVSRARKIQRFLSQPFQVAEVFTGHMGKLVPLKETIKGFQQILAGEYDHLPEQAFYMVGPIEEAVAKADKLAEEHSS

APGPRY
Intake of high fat diet (rats): No changes
Binding of 125I-β-casomorphin1-7 (F1-ATPase β-subunit): Increased

YPGPR
Intake of high fat diet (rats): Suppression
Binding of 125I-β-casomorphin1-7 (F1-ATPase β-subunit): Increased

APGPR
Intake of high fat diet (rats): Suppression
Binding of 125I-β-casomorphin1-7 (F1-ATPase β-subunit): Increased

Glucagon: drug for severe hypoglycemia that stimulates the liver to release large amounts of glucose
Time to restore blood sugar [1]: 5 to 15 min

CYAPGPR [enterostatin analog]
Intake of high fat diet (rats): Stimulation
Binding of 125I-β-casomorphin1-7 (F1-ATPase β-subunit): Displaced

β-casomorphin [reference compound]
pAMPK levels (AMPK; HepG2, 0.1 or 1.0 μM, 15 min): increased pAMPK levels
Effect on pAMPK in presence of antibody anti F1-ATPase beta subunit (AMPK; HepG2, 15 min, 5 mM glucose): blocked this effect
AMPkinase activity shown by pAMPK (AMPK; HepG2, 15 min, 5 mM glucose, 0.003-3 μM): activated AMPkinase

CYDPGPR [enterostatin analog]
Intake of high fat diet (rats): Stimulation
Binding of 125I-β-casomorphin1-7 (F1-ATPase β-subunit): Displaced

VPDPR-NH2
Intake of high fat diet (rats): No changes
Binding of 125I-β-casomorphin1-7 (F1-ATPase β-subunit): Displaced

cyclo-HP
Intake of high fat diet (rats): ^bOnly inhibits food intake as cyclo-HP.

YVPDPR
Intake of high fat diet (rats): Suppression
Binding of 125I-β-casomorphin1-7 (F1-ATPase β-subunit): Increased

PGP
Intake of high fat diet (rats): No changes
Binding of 125I-β-casomorphin1-7 (F1-ATPase β-subunit): Increased

PDP
Intake of high fat diet (rats): Suppression
Binding of 125I-β-casomorphin1-7 (F1-ATPase β-subunit): Increased

APGPRCY [enterostatin analog]
Intake of high fat diet (rats): Suppression
Binding of 125I-β-casomorphin1-7 (F1-ATPase β-subunit): Increased

APGPY
Intake of high fat diet (rats): Suppression
Binding of 125I-β-casomorphin1-7 (F1-ATPase β-subunit): Increased

CC1=NS(=O)(=O)c2cc(Cl)ccc2N1 [Diazoxide, diazoxide]
Duration of action [1]: about 8 hr
Time to act (increase of blood sugar) [1]: ≤ 1 h

VPDPR
Intake of high fat diet (rats): Suppression
Binding of 125I-β-casomorphin1-7 (F1-ATPase β-subunit): Increased

PGPCY
Intake of high fat diet (rats): No changes
Binding of 125I-β-casomorphin1-7 (F1-ATPase β-subunit): Increased

DPGPR
Intake of high fat diet (rats): No changes
Binding of 125I-β-casomorphin1-7 (F1-ATPase β-subunit): Displaced

YGGAPGPR [enterostatin analog]
Intake of high fat diet (rats): Suppression
Binding of 125I-β-casomorphin1-7 (F1-ATPase β-subunit): Increased

YPDPR
Intake of high fat diet (rats): Suppression
Binding of 125I-β-casomorphin1-7 (F1-ATPase β-subunit): Increased

VPDPRCY [enterostatin analog]
Intake of high fat diet (rats): Suppression
Binding of 125I-β-casomorphin1-7 (F1-ATPase β-subunit): Increased

YPFPGPI [enterostatin analog]
Intake of high fat diet (rats): Stimulation
Binding of 125I-β-casomorphin1-7 (F1-ATPase β-subunit): Displaced
